The text below walks through data of US20110282056A1, “PROTEIN KINASE INHIBITORS AND USE THEREOF” (priority 2008, published 2011).

Format in all cases: biochemical
For one test, the target named is T1, Flt3 (Homo sapiens, UniProt P36888).
T1 construct: purchased BPS Bioscience; San Diego, Calif; 40225
T1 sequence (P36888 27-993): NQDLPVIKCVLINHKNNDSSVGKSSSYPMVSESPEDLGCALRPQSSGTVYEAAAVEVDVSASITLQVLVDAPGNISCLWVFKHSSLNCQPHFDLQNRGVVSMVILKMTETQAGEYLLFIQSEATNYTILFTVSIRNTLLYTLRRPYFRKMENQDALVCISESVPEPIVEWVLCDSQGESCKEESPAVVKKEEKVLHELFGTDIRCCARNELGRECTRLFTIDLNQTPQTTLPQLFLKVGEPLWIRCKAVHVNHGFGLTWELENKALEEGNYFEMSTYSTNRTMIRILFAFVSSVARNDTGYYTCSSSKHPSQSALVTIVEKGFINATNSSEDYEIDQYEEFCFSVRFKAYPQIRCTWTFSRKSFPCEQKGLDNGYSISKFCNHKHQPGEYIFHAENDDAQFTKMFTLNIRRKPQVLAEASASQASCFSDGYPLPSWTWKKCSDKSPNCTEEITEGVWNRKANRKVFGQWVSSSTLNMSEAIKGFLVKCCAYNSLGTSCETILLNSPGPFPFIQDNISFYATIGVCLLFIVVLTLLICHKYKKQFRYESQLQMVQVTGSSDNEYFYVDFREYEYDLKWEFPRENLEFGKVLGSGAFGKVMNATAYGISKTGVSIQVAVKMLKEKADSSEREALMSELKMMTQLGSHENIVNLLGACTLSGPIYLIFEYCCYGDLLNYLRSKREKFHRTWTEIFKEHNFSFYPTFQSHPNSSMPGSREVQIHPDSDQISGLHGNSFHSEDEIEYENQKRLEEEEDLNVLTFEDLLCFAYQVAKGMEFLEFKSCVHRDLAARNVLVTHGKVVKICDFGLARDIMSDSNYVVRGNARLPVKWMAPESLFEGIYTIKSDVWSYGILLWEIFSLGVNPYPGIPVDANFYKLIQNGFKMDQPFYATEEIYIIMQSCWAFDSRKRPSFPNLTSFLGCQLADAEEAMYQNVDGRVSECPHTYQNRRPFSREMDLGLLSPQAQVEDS
Nature of the test: Flt3 enzyme activity assay (Caliper LC3000 mobility shift). To be noted: 350 uM ATP (Km), 3 nM Flt3, 90 minutes at RT. Here is the method:
(§1) Enzyme activity for VEGFR3, VEGFR2 and Flt3 were measured on the Caliper Life Sciences LC3000 (Hopkinton, Mass.). The system utilizes the principle of electroosmotic flow to separate and quantify the amount of phosphorylated-Fluorescein-labelled-peptide (product) from unphosphorylated-Fluorescein-labelled peptide (substrate). The amount of product and substrate are determined by measuring the peak heights from the electropherogram. The enzyme activity is then quantified by dividing the amount of product by the sum of the product and substrate. The inhibitory activity of a sample is measured by comparing the enzyme activity in the presence of sample versus the enzyme activity in the presence of dimethylsufoxide (DMSO). Specific assay conditions for each enzyme are listed below:
Flt3 assay: The peptide substrate at 1 uM (FITC-AHA-UEAIYAAPFAKKK-CONH2; synthesized at Tufts University, Boston, Mass.) was incubated with 350 uM of ATP, corresponding to the Michaelis-Menten (Km) constant of the enzyme/substrate reaction, and 3 nM of Flt3 (BPS Bioscience; San Diego, Calif.; Cat. No. 40225) for 90 minutes at RT. After 90 minutes, the reaction was stopped by the addition of 10 mM EDTA. The substrate and product were then separated on the LC3000.

A further test addresses T2, VEGFR3 (Homo sapiens, UniProt P35916).
T2 construct: purchased Millpore Corp. (Millipore) 14-681
In words: VEGFR3 enzyme activity assay (Caliper LC3000 mobility shift). To be noted: 400 uM ATP (Km), 0.4 nM VEGFR3, 90 minutes at RT. As for the experimental part:
as §1
VEGFR3 assay: The peptide substrate at 1 uM (FITC-KKKKEEIYFFF-CONH2; synthesized at Tufts University, Boston, Mass.) was incubated with 400 uM of ATP, corresponding to the Michaelis-Menten (Km) constant of the enzyme/substrate reaction, and 0.4 nM of VEGFR3 (Millpore Corp., Cat. No. 14-681) for 90 minutes at RT. After 90 minutes, the reaction was stopped by the addition of 10 mM EDTA. The substrate and product were then separated on the LC3000.

The next test deals with T3, VEGFR2 (Homo sapiens, UniProt P35968).
T3 construct: purchased BPS Bioscience; San Diego, Calif; 40301
Nature of the test: VEGFR2 enzyme activity assay (Caliper LC3000 mobility shift). To be noted: 160 uM ATP (Km), 1 nM VEGFR2, 90 minutes at RT. Here is the method:
as §1
VEGFR2 assay: The peptide substrate at 1 uM (5-FL-EEPLYWSFPAKKK-CONH2; synthesized at Tufts University, Boston, Mass.) was incubated with 160 uM of ATP, corresponding to the Michaelis-Menten (Km) constant of the enzyme/substrate reaction, and 1 nM of VEGFR2 (BPS Bioscience; San Diego, Calif.; Cat. No. 40301) for 90 minutes at RT. After 90 minutes, the reaction was stopped by the addition of 10 mM EDTA. The substrate and product were then separated on the LC3000.

Molecules are shown by their SMILES.

T2 sequence (P35916 25-1363): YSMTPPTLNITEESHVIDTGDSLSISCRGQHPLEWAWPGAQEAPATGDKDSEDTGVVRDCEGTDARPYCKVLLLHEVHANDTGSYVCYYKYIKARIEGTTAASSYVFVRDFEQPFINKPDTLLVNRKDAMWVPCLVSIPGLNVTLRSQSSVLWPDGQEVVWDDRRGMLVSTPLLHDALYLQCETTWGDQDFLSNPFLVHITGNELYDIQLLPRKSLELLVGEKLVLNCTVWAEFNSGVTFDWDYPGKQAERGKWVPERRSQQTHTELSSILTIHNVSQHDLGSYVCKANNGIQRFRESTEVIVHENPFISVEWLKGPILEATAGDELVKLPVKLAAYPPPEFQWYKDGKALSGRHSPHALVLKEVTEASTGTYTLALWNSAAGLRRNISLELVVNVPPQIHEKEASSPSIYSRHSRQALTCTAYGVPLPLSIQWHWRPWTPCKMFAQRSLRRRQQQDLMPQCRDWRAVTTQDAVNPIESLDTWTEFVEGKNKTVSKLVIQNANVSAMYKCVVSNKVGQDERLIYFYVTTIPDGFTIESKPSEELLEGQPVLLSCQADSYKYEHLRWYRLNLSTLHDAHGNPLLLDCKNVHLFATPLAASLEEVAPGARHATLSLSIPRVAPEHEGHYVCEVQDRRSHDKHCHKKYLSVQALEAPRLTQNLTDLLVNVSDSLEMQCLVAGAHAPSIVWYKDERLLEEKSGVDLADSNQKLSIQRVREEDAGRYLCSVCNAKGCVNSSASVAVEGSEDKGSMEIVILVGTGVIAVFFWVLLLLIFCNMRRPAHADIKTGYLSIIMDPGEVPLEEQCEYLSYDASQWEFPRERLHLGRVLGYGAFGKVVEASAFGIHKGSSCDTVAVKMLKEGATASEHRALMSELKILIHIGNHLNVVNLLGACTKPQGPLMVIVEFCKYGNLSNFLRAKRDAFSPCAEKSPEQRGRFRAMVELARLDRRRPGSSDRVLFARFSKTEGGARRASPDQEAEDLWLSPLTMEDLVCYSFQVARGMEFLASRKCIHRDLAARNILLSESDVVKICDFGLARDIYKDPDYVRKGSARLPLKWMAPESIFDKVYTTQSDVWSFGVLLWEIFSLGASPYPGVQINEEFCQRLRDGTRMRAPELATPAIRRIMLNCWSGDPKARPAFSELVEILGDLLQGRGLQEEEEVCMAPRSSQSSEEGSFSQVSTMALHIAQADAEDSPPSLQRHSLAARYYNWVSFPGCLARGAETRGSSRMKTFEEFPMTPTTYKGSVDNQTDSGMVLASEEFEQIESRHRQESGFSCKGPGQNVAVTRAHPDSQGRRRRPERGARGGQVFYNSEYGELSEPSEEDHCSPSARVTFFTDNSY
T3 sequence (P35968 20-1356): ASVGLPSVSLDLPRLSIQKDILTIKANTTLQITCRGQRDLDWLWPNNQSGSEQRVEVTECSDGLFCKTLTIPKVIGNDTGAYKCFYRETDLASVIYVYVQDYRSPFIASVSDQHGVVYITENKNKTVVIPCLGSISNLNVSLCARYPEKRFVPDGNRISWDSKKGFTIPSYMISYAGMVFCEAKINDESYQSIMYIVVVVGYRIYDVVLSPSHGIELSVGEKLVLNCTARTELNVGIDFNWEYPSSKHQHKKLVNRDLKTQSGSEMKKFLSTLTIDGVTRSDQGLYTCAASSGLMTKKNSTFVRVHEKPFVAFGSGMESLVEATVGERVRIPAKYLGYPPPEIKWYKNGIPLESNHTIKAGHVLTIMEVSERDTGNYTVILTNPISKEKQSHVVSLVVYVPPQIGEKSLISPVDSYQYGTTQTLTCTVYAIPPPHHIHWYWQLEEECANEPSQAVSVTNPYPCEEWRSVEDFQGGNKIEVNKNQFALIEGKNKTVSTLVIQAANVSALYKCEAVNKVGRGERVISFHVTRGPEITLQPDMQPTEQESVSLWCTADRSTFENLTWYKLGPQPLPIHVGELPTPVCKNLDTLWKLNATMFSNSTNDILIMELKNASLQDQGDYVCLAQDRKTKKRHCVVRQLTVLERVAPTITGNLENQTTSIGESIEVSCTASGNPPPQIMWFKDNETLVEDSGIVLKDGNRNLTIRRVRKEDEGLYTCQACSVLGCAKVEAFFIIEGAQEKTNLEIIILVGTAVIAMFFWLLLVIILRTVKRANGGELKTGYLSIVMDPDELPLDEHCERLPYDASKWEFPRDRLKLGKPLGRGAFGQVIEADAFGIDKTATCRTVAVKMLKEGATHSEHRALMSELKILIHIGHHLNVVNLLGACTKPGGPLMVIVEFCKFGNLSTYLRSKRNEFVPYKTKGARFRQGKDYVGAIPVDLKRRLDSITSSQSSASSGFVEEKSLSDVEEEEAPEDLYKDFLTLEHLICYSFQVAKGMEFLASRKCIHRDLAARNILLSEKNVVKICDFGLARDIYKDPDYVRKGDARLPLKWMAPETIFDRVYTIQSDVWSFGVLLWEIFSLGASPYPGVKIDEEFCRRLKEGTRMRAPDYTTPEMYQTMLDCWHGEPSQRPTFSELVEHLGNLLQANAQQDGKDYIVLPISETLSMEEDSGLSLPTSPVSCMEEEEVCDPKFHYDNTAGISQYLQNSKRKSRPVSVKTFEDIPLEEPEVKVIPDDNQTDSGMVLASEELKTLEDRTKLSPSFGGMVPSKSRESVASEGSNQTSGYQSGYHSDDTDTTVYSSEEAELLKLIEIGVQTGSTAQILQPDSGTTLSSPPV

On to `COc1cccnc1C#Cc1ccnc2[nH]ccc12` [compound 84], for which the IC50 at Flt3, at VEGFR3 and at VEGFR2 was over 1 µM throughout.
Take `O=C(NCc1ccccc1C#Cc1ccnc2[nH]ccc12)Nc1ccccc1` [compound 113]: the IC50 on Flt3, on VEGFR3 and on VEGFR2 was over 1 µM each time.
For the compound `C(#Cc1ccnc2[nH]ccc12)c1ccc(-c2ccccc2)cc1` [compound 133], the IC50 on Flt3, at VEGFR3 and on VEGFR2 was over 1 µM throughout.
In the case of `COc1cccc(C#Cc2ccnc3[nH]ccc23)c1` [compound 51], the results for the IC50 on Flt3, at VEGFR3 and on VEGFR2 were 0.1 to 1 µM, 0.1 to 1 µM and over 1 µM, respectively.
For `CC(=O)Nc1ccccc1C#Cc1ccnc2[nH]ccc12` [compound 45], the figures for the IC50 on Flt3, on VEGFR3 and at VEGFR2 were over 1 µM, 0.1 to 1 µM and over 1 µM, respectively.
In the case of `C=Cc1cccc(C#Cc2ccnc3[nH]ccc23)c1` [compound 65], the IC50 was over 1 µM on Flt3, 0.1 to 1 µM at VEGFR3 and over 1 µM on VEGFR2.
For the compound `C[Si](C)(C)C#Cc1ncnc2[nH]ccc12` [compound 109], the IC50 at Flt3, at VEGFR3 and at VEGFR2 was over 1 µM each time.
Consider `Fc1ccc(C#Cc2ccnc3[nH]ccc23)cc1` [compound 80], for which the IC50 at Flt3, at VEGFR3 and at VEGFR2 was over 1 µM each time.
As to `Cn1cncc1C#Cc1ccnc2[nH]ccc12` [compound 66], the IC50 on Flt3, at VEGFR3 and at VEGFR2 was 0.1 to 1 µM throughout.
`COc1ccccc1C#Cc1ccnc2[nH]ccc12` [compound 52]: the IC50 on Flt3 was over 1 µM; on VEGFR3, 0.1 to 1 µM; at VEGFR2, over 1 µM.
In the case of `FC(F)(F)c1cccc(C#Cc2ccnc3[nH]ccc23)c1` [compound 116], the IC50 on Flt3, on VEGFR3 and at VEGFR2 was over 1 µM in each case.
Turning to `Nc1cccc(C#Cc2cnc3[nH]ccc3c2)c1` [compound 71], the concentration for half-maximal inhibition (IC50) is over 1 µM on Flt3, 0.1 to 1 µM on VEGFR3 and over 1 µM on VEGFR2.
Regarding `FC(F)(F)c1ccccc1C#Cc1cnc2[nH]ccc2c1` [compound 105], the IC50 at Flt3, at VEGFR3 and at VEGFR2 was over 1 µM in each case.
For the compound `C(#Cc1ccnc2[nH]ccc12)c1ncccn1` [compound 93], the IC50 on Flt3, at VEGFR3 and on VEGFR2 was over 1 µM throughout.
For `C(#Cc1ccnc2[nH]ccc12)c1cncnc1` [compound 83], the IC50 on Flt3, at VEGFR3 and on VEGFR2 was over 1 µM throughout.
In the case of `C#Cc1ccnc2[nH]ccc12` [compound 96], the IC50 at Flt3, on VEGFR3 and on VEGFR2 was over 1 µM in each case.
With `C(#Cc1ccnc2[nH]ccc12)c1ccoc1` [compound 44], the IC50 at Flt3 is over 1 µM; at VEGFR3, 0.1 to 1 µM; at VEGFR2, over 1 µM.
On to `CC(=O)c1cccc(C#Cc2ccnc3[nH]ccc23)c1` [compound 50], for which the IC50 at Flt3 is 0.1 to 1 µM; on VEGFR3, 0.1 to 1 µM; at VEGFR2, over 1 µM.
In the case of `C(#Cc1ccnc2[nH]ccc12)c1ccccn1` [compound 86], the half-maximal inhibitory concentration (IC50) on Flt3, on VEGFR3 and at VEGFR2 was over 1 µM in each case.
As for `Nc1cc(C#Cc2ccccc2CNC(=O)C(F)(F)F)ccn1` [compound 129], the IC50 on Flt3, on VEGFR3 and at VEGFR2 was over 1 µM each time.
Take `FC(F)(F)c1ccc(C#Cc2ccnc3[nH]ccc23)cc1` [compound 135]: the IC50 on Flt3, at VEGFR3 and at VEGFR2 was over 1 µM throughout.
Take `C(#Cc1cnc2[nH]ccc2c1)c1ccccc1` [compound 108]: the IC50 at Flt3, at VEGFR3 and on VEGFR2 was over 1 µM throughout.
In the case of `COC(=O)c1cccc(C#Cc2ccnc3[nH]ccc23)c1` [compound 55], the IC50 at Flt3 was over 1 µM; at VEGFR3, 0.1 to 1 µM; on VEGFR2 it was over 1 µM.
On to `Cc1cccc(C#Cc2ccnc3[nH]ccc23)n1` [compound 76], for which the IC50 at Flt3, on VEGFR3 and at VEGFR2 was over 1 µM in each case.
For the compound `Nc1ccc(C#Cc2cnc3[nH]ccc3c2)cc1` [compound 79], the IC50 on Flt3 is 0.1 to 1 µM; at VEGFR3, over 1 µM; on VEGFR2, over 1 µM.
Take `O=C(NCc1ccccc1C#Cc1ccnc2[nH]ccc12)C(F)(F)F` [compound 56]: the IC50 at Flt3 is over 1 µM; on VEGFR3 it was 0.1 to 1 µM; on VEGFR2, over 1 µM.
As for `C(#Cc1ccnc2[nH]ccc12)c1ccc(-c2cccs2)cc1` [compound 126], the IC50 on Flt3, on VEGFR3 and on VEGFR2 was over 1 µM throughout.
For `CN(C)c1ccc(C#Cc2ncnc3sc4c(c23)CCCC4)cc1` [compound 125], the IC50 on Flt3, at VEGFR3 and at VEGFR2 was over 1 µM each time.
Consider `C(#Cc1ccnc2[nH]ccc12)c1ccc2cc[nH]c2c1` [compound 88], for which the IC50 at Flt3, at VEGFR3 and on VEGFR2 was over 1 µM in each case.
On to `FC(F)(F)c1ccccc1C#Cc1ccnc2[nH]ccc12` [compound 48], for which the IC50 was over 1 µM on Flt3, 0.1 to 1 µM on VEGFR3 and over 1 µM at VEGFR2.
On to `C(#Cc1ccnc2[nH]ccc12)c1ccc(-c2cnco2)cc1` [compound 119], for which the IC50 at Flt3, on VEGFR3 and at VEGFR2 was over 1 µM throughout.
For `COc1ccc(C#Cc2ccnc3[nH]ccc23)cc1OC` [compound 85], the IC50 on Flt3, at VEGFR3 and on VEGFR2 was over 1 µM throughout.
Take `C(#Cc1ccnc2[nH]ccc12)c1ccccc1-n1cccc1` [compound 58]: the IC50 at Flt3 is over 1 µM; at VEGFR3 it was 0.1 to 1 µM; on VEGFR2, over 1 µM.
As to `Cc1cccc(C#Cc2ccnc3[nH]ccc23)c1` [compound 62], the IC50 on Flt3 is over 1 µM; on VEGFR3, 0.1 to 1 µM; on VEGFR2, over 1 µM.
In the case of `Cc1nc(-c2ccc(C#Cc3ccnc4[nH]ccc34)cc2)no1` [compound 114], the IC50 at Flt3, on VEGFR3 and on VEGFR2 was over 1 µM throughout.
With `FC(F)Oc1ccc(C#Cc2ccnc3[nH]ccc23)cc1` [compound 107], the IC50 at Flt3, on VEGFR3 and at VEGFR2 was over 1 µM each time.

The IC50 is the point on the concentration scale where inhibition reaches its midpoint.
